Laboratory results published in US20220105072A1, “PHARMACEUTICAL COMPOSITION FOR PREVENTING OR TREATING DIABETES COMPLICATIONS COMPRISING NOVEL CHRYSIN DERIVATIVE COMPOUND AS ACTIVE INGREDIENT” (FRONTBIO INC., priority 2018, published 2022).
Values after ≈ are worked out from the molar mass of the structure shown. Read-outs that look alike come from different tables or passages of the source.

Tests used:
[1] = test system: formation of Amadori compound; experiment: Hemoglobin-δ-gluconolactone assay, formation of Amadori compound (initial stage); assay type: biochemical, human; conditions: for initial inhibitory activity, times higher than the positive control: versus positive control group (aminoguanidine)
Protocol: (1) Analysis of Hemoglobin-δ-Gluconolactone with Respect to Formation of Amadori Compound (Initial Stage)
Evaluation of the initial stage of protein glycosylation was determined by δ-gluconolactone assay (Rahbar et al., 1999). Briefly, fresh human blood (50 mg/mL) was cultured with glucose (144 mg/mL) in a phosphate buffer (pH 7.4) containing 0.2 g/L of NaN3 under conditions of […] at 37° C. for 7 days.
In certain experiments, an indicated sample was added in a concentration range of 0.01 to 1 mM to a model system. Fluorescence of the sample was measured at maximum excitation and emission values of 355 nm and 460 nm, respectively. The test was conducted using aminoguanidine, a known inhibitor, as a positive control group.

AGE formation = experiment: Bovine serum albumin-methylglyoxal analysis, AGE formation (intermediate stage); assay type: biochemical
Protocol: (2) Bovine Serum Albumin—Methylglyoxal Analysis with Respect to AGE Formation (Intermediate Stage)
Bovine serum albumin (50 mg/mL) was incubated with methylglyoxal (100 mM) in a sodium phosphate buffer ([…], pH 7.4) at 37° C. for 24 hours in the presence of various concentrations of compounds (including a control group).
All reagents and samples were sterilized by filtration through […] membrane filters. Fluorescence intensity was measured at an excitation wavelength of 355 nm and an emission wavelength of 460 nm using a luminescence spectrometer LS50B (Perkin-Elmer Ltd., Buckinghamshire, England) (Wu & Yen, 2005). The test was conducted using aminoguanidine as a positive control group. The concentration of each test sample showing 50% inhibitory activity (IC50) was estimated from the least squares regression line of logarithmic concentrations plotted against the residual activity.

crosslinking of AGEs = experiment: N-acetyl-glycyl-lysine-methyl ester D-ribose assay, crosslinking of AGEs (late stage); assay type: biochemical; conditions: for IC50: read-out: IC50 (AGE crosslinking, late stage)
Protocol: (3) N-acetyl-glycyl-lysine-methyl ester D-ribose assay on crosslinking of AGEs (late stage)
This test was used to evaluate the ability of the sample to inhibit crosslinking of GK peptides in the presence of D-ribose using the method described by Rahbar et al. (1999). The GK peptide (26.7 mg/mL) was incubated with D-ribose (200 mg/mL) under aseptic conditions in sodium phosphate buffer (0.5 M, pH 7.4) at 37° C. for 24 hours. The synthesized compound was added to the model system at a final concentration of 1 mM, excluding the aminoguanidine used at 10 mM and 50 mM. At the end of the incubation period, fluorescence intensity was measured at an excitation wavelength of 335 nm and an emission wavelength of 460 nm.

RAW 264.7 cells = experiment: NO production in LPS-induced RAW 264.7 cells (Griess reagent); assay type: cell-based; conditions: 24 hours, FIG. 1A
Protocol: The cytotoxicity of chrysin and derivatives thereof in RAW 264.7 cells was investigated using a MTS assay kit. Cells (1.6×10^4/well) were cultured in 96-well plates and treated with samples (10, 25 and 100 μM) for 12, 24, 48 and 72 hours. After culture, a MTS solution was incubated at 20 μL/well at 37° C. in a humidified 5% CO2 atmosphere for 90 minutes. The optical density at 490 nm was measured three times using an EL-800 universal microplate reader (Bio-Tek Instrument Inc., Winooski, USA). The cell viability of a untreated group was set at 100%. RAW 264.7 cells were seeded at a density of 4×10^5 cells/well on a 12-well plate and incubated with LPS (1 μg/mL) and samples of various concentrations for 24 hours. The concentration of […] (NO) in the medium was measured using a Griess reagent system described by the manufacturer. The production of NO was measured at 570 nm using an EL-800 Universal microplate reader (Bio-Tek Instrument Inc., Winooski, USA) and compared with the nitrite standard calibration curve.

[2] = Solubility analysis in distilled water (HPLC); assay type: physicochemical; conditions: for solubility in water, times higher than Comparative Example 1: versus Comparative Example 1
Protocol: The chrysin and derivatives thereof were dissolved in distilled water and sonicated for 1 hour to maximize solubility and incubated at 37° C. After sonication, undissolved samples were removed by centrifugation (7000 g, 37° C., 5 min). The concentration of the sample was analyzed by HPLC by diluting the supernatant with methanol and filtering through a 0.45 μm disposable syringe filter (Advantec, Dublin, Calif., USA).

IC50 (crosslinking of AGEs) | solubility at 1 h ([2]; distilled water, water, thermodynamic from solid, 37° C.) | Structure (SMILES) | inhibitory activity against formation of the Amadori compound, times higher than chrysin ([1]; versus chrysin) | initial inhibitory activity, times higher than the positive control [1] | IC50 (AGE formation) | IC50 (crosslinking of AGEs; unit inferred) | effect on NO production (RAW 264.7 cells) | Solubility in water ([2]; 37° C.) | solubility in water, times higher than Comparative Example 1 [2] | activity against AGE formation, times higher than the positive control group (AGE formation; versus aminoguanidine) | inhibitory activity (late stage) (crosslinking of AGEs; at a concentration of 10.0 mg/mL)
– | – | CC(=O)Oc1cc(OC(C)=O)c2c(=O)cc(-c3ccccc3)oc2c1 [Synthesis Example 2, 4-oxo-2-phenyl-4H-chromen-5,7-diyl diacetate] | 66.96 times | 422.07 times | 0.91 µM | 22.3 µM | inhibited NO in a concentration-dependent manner | 265 µM | 8.83 times | – | –
– | – | O=c1cc(-c2ccccc2)oc2cc(O)cc(O)c12 [Comparative Example 1, 5,7-dihydroxy-2-phenyl-4H-chromen-4-one, reference compound] | – | – | – | – | – | 30 µM (≈ 7.63 µg/mL) | – | 5.48 times | did not exhibit inhibitory activity
– | – | COc1cc(OC)c2c(=O)cc(-c3ccccc3)oc2c1 [Synthesis Example 5, 5,7-dimethoxy-2-phenyl-4H-chromen-4-one] | – | 13.92 times | 41.8 µM | 39.9 µM | – | – | – | – | –
– | – | CC(=O)Oc1cc(O)c2c(=O)cc(-c3ccccc3)oc2c1 [Synthesis Example 1, 5-hydroxy-4-oxo-2-phenyl-4H-chromen-7-yl acetate] | – | 4.66 times | 21.6 µM | – | – | 86 µM | 2.87 times | – | –
1900 µM | 30 µM (≈ 2.22 µg/mL) | N=C(N)NN [Positive control group (Aminoguanidine), aminoguanidine, reference compound] | – | – | 137 µM | – | – | – | – | – | –
